Results taken from US20240254119A1 (THIRD HARMONIC BIO, INC., priority 2022, published 2024).

target: T1, wtKIT (Homo sapiens, UniProt P10721); assay: HTRF biochemical assay, wtKIT (phosphorylation of a peptide substrate); conditions: Table 4
T1 construct: 1888289AM in the reaction mixtures
Method in brief: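 wtKIT (5.0 nM) phosphorylating 1 µM FAM-labelled peptide with 400 µM ATP and 10 mM MnCl2 in 100 mM HEPES pH 7.5, 1% DMSO, 3 h at 25 °C. EDTA quench; phosphopeptide detected with anti-phosphotyrosine antibody by HTRF. Enzyme titrated for 10-20% substrate conversion.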

T1 sequence (P10721 26-976): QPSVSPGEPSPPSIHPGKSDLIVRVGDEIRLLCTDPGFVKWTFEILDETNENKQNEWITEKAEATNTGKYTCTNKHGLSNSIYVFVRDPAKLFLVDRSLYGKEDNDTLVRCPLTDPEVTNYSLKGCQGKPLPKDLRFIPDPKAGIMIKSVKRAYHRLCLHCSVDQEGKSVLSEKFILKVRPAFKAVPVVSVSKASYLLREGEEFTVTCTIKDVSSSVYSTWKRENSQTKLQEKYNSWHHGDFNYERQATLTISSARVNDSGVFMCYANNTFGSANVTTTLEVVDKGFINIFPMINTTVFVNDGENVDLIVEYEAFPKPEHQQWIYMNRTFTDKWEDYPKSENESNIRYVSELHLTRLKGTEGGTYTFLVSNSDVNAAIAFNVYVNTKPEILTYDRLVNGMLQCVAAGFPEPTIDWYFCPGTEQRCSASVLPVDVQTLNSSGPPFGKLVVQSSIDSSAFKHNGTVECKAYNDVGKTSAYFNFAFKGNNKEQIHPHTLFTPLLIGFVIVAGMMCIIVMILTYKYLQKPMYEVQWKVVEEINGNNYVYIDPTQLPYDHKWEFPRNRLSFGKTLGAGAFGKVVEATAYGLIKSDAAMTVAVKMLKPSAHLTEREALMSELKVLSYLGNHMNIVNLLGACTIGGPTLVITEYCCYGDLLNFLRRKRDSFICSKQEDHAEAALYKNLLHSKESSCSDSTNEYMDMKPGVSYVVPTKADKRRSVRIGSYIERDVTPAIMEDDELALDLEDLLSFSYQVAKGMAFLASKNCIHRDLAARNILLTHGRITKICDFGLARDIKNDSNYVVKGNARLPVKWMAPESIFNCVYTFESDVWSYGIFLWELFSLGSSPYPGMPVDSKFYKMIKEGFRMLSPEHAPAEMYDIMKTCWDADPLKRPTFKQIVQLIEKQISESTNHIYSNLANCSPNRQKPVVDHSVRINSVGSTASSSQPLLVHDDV

| Structure (SMILES) | IC50 [nM] |
| --- | --- |
| Cc1ccc(-c2noc(CC(O)C(F)F)n2)cc1NC(=O)c1cnc2ccccn12 (stereo not drawn) [Compound I-114] | ≤ 50 |
| CCCS(=O)(=O)N1CC(c2nc(-c3ccc(Cl)c(NC(=O)c4cnc5ccccn45)c3)no2)C1 [Compound I-220] | ≤ 50 |
| COC(=O)N1CC(c2nc(-c3ccc(C(F)F)c(NC(=O)c4cnc5ccccn45)c3)no2)C1 [Compound I-225] | ≤ 50 |
| Cc1ccc(-c2noc([C@H]3C[C@@H]3F)n2)cc1NC(=O)c1cnc2ccc(F)cn12 [Compound I-288] | ≤ 50 |
| Cc1ccc(-c2noc(CCO)n2)cc1NC(=O)c1cnc2ccccn12 [Compound I-306] | 50 to 500 |
| Cc1ccc(-c2noc(CC(C)(C)O)n2)cc1NC(=O)c1cnc2ccccn12 [Compound I-336] | 50 to 500 |
| COC(=O)N1CC(c2nc(-c3ccc(Cl)c(NC(=O)c4cnc5ccccn45)c3)no2)C1 [Compound I-339] | ≤ 50 |
| Cc1ccc(-c2noc([C@H]3CC(F)(F)CN3)n2)cc1NC(=O)c1cnc2ccccn12 [Compound I-359] | 50 to 500 |
| Cc1ccc(-c2noc(C3CC(OCCF)C3)n2)cc1NC(=O)c1cnc2ccccn12 (stereo not drawn) [Compound I-369] | ≤ 50 |

target: T2, MDR1 (MDR1-MDCKII cells) (Homo sapiens, UniProt P08183); assay: Permeability in MDR1-MDCKII cells; assay type: in vitro ADME; conditions: MDCKII-MDR1
T2 construct: host or cells: MDCKII (canine kidney) cells
T2 sequence (P08183 whole entry): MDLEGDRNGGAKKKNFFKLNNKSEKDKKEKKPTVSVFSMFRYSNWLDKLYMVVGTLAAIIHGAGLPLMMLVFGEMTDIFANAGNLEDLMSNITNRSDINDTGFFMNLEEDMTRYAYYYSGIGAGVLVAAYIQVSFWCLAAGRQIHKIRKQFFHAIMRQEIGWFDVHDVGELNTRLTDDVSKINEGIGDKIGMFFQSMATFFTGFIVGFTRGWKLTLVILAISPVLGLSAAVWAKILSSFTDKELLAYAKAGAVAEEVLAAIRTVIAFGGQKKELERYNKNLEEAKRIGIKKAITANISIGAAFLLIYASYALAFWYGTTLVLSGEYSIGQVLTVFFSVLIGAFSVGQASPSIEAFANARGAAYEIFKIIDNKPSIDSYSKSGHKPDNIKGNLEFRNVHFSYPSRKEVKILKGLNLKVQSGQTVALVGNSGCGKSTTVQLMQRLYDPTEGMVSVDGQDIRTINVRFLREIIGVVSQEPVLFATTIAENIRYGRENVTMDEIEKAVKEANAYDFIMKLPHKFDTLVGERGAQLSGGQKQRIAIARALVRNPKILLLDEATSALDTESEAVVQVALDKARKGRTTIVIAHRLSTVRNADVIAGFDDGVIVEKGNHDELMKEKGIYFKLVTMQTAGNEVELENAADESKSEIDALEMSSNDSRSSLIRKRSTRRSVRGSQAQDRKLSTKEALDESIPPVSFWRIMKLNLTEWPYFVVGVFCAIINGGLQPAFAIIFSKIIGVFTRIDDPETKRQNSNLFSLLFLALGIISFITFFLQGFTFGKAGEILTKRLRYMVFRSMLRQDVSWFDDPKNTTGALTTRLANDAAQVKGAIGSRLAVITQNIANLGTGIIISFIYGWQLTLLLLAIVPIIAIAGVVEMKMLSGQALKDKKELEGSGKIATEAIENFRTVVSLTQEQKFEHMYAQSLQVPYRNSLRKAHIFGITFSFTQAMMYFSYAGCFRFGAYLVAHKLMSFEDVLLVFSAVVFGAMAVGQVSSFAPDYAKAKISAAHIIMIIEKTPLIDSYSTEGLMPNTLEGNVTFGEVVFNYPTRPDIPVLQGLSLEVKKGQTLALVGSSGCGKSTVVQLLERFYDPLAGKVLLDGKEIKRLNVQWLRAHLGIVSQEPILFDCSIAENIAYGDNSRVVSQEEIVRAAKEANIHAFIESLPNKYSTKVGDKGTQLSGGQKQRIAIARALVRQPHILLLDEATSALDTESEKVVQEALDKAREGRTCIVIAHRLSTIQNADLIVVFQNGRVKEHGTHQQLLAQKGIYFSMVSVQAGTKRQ
Protocol: Exemplary compounds were tested for cell permeability in Caco-2, MDCKII-MDR1 and MDCKII-BCRP cell lines with efflux transporter engagement inferred from the efflux ratios determined. Procedures and results are described below. […] This feature of certain compounds is in part due to efflux transporter engagement. See, for instance, exemplary such compounds included in data tables below.
MDR1-MDCKII cells (obtained from Piet Borst at the Netherlands Cancer Institute) were seeded onto […] membranes (PET) in 96-well insert systems at 2.5×10^5 cells/mL until to 4-7 days for confluent cell monolayer formation.
Test compounds were diluted with the transport buffer (HBSS with 10 mM Hepes, pH7.4) from DMSO stock solution to a concentration of 2.00 μM (DMSO<1%) and applied to the apical or basolateral side of the cell monolayer. Permeation of the test compounds from A to B direction or B to A direction was determined in duplicate. Digoxin was tested at 10.0 μM from A to B direction or B to A direction as well, while nadolol and metoprolol were tested at […] in A to B direction in duplicate. The plate was incubated for 2.5 hours in CO2 incubator at 37±1° C., with 5% CO2 at saturated humidity without shaking. In addition, the efflux ratio of each compound was also determined. Test and reference compounds were quantified by LC-MS/MS analysis based on the peak area ratio of analyte/IS.
After transport assay, Lucifer yellow rejection assay are applied to determine the cell monolayer integrity. Buffers are removed from both apical and basolateral chambers, followed by the addition of 75 μL of 100 μM lucifer yellow in transport buffer and 250 μL transport buffer in apical and basolateral chambers, respectively. The plate is incubated for 30 minutes at 37° C. with 5% CO2 and saturated humidity without shaking. After 30 minutes incubation, 20 μL of lucifer yellow samples are taken from the apical sides, followed by the addition of 60 μL of Transport Buffer. And then 80 μL of lucifer yellow samples are taken from the basolateral sides. The relative fluorescence unit (RFU) of lucifer yellow is measured at 425/528 nm (excitation/emission) with an Envision plate reader.
The apparent permeability coefficient Papp (cm/s) was calculated using the equation: […]
Where dCr/dt is the cumulative concentration of compound in the receiver chamber as a function of time (μM/s); Vr is the solution volume in the receiver chamber (0.075 mL on the apical side, 0.25 mL on the basolateral side); A is the surface area for the transport, i.e. 0.0804 cm^2 for the area of the monolayer; C0 is the initial concentration in the donor chamber (μM). The efflux ratio was calculated using the equation: […]
Where Vd is the volume in the donor chambers (0.075 mL on the apical side, 0.25 mL on the basolateral side); Cd and Cr are the final concentrations of transport compound in donor and receiver chambers, respectively.

| Structure (SMILES) | MDCKII-MDR1: Efflux Ratio |
| --- | --- |
| Cc1ccc(-c2noc(CC(O)C(F)F)n2)cc1NC(=O)c1cnc2ccccn12 (stereo not drawn) [Compound I-114] | 3.67 |
| CCCS(=O)(=O)N1CC(c2nc(-c3ccc(Cl)c(NC(=O)c4cnc5ccccn45)c3)no2)C1 [Compound I-220] | 0.71 |
| COC(=O)N1CC(c2nc(-c3ccc(C(F)F)c(NC(=O)c4cnc5ccccn45)c3)no2)C1 [Compound I-225] | 1.1 |
| Cc1ccc(-c2noc([C@H]3C[C@@H]3F)n2)cc1NC(=O)c1cnc2ccc(F)cn12 [Compound I-288] | 0.51 |
| Cc1ccc(-c2noc(CCO)n2)cc1NC(=O)c1cnc2ccccn12 [Compound I-306] | 2.88 |
| Cc1ccc(-c2noc(CC(C)(C)O)n2)cc1NC(=O)c1cnc2ccccn12 [Compound I-336] | 1.85 |
| COC(=O)N1CC(c2nc(-c3ccc(Cl)c(NC(=O)c4cnc5ccccn45)c3)no2)C1 [Compound I-339] | 0.84 |
| Cc1ccc(-c2noc([C@H]3CC(F)(F)CN3)n2)cc1NC(=O)c1cnc2ccccn12 [Compound I-359] | 0.81 |
| Cc1ccc(-c2noc(C3CC(OCCF)C3)n2)cc1NC(=O)c1cnc2ccccn12 (stereo not drawn) [Compound I-369] | 0.87 |

same assay, conditions: MDCKII-MDR1, apical to basolateral

| Structure (SMILES) | MDCKII-MDR1: Papp A-B |
| --- | --- |
| Cc1ccc(-c2noc(CC(O)C(F)F)n2)cc1NC(=O)c1cnc2ccccn12 (stereo not drawn) [Compound I-114] | 7.8 10^−6 cm/s |
| CCCS(=O)(=O)N1CC(c2nc(-c3ccc(Cl)c(NC(=O)c4cnc5ccccn45)c3)no2)C1 [Compound I-220] | 16.3 10^−6 cm/s |
| COC(=O)N1CC(c2nc(-c3ccc(C(F)F)c(NC(=O)c4cnc5ccccn45)c3)no2)C1 [Compound I-225] | 15.9 10^−6 cm/s |
| Cc1ccc(-c2noc([C@H]3C[C@@H]3F)n2)cc1NC(=O)c1cnc2ccc(F)cn12 [Compound I-288] | 20.6 10^−6 cm/s |
| Cc1ccc(-c2noc(CCO)n2)cc1NC(=O)c1cnc2ccccn12 [Compound I-306] | 14.5 10^−6 cm/s |
| Cc1ccc(-c2noc(CC(C)(C)O)n2)cc1NC(=O)c1cnc2ccccn12 [Compound I-336] | 15.4 10^−6 cm/s |
| COC(=O)N1CC(c2nc(-c3ccc(Cl)c(NC(=O)c4cnc5ccccn45)c3)no2)C1 [Compound I-339] | 22.8 10^−6 cm/s |
| Cc1ccc(-c2noc([C@H]3CC(F)(F)CN3)n2)cc1NC(=O)c1cnc2ccccn12 [Compound I-359] | 21.4 10^−6 cm/s |
| Cc1ccc(-c2noc(C3CC(OCCF)C3)n2)cc1NC(=O)c1cnc2ccccn12 (stereo not drawn) [Compound I-369] | 24.4 10^−6 cm/s |
